Laboratory results from PubChem BioAssay (NCI).
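Tested at 5 concentrations; 48 h exposure; 96-well plates; endpoints linearly interpolated, else capped at highest concentration. At the TGI there is no net growth.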

Test system: 786-0 renal
Assay: NCI tumour cell line growth inhibition, 48 h

**Q.** How did the TGI turn out when `Cc1c2cccc-2c(OCCO)cc2c3ccccc3n(C)c12` was run?
**A.** 16.2 µM

**Q.** For `c1ccc2c(c1)SCCC2NC1=NCCO1` (configuration not stated), which TGI is on record?
**A.** > 100 µM

**Q.** `C=CCN(C(=O)CNC(=O)C(F)(F)F)c1cc(OCc2ccccc2)c2c(c1)c(C)cn2S(=O)(=O)c1ccccc1` was tested. Which TGI did it give?
**A.** > 100 µM

**Q.** `COC1=C(Br)[C@H](O)[C@@]2(C=C1Br)CC(C(=O)NCCCOc1c(Br)cc(C(O)CNC(C)=O)cc1Br)=NO2` (some centres not stated) was tested. Which TGI did it give?
**A.** > 10 µM

**Q.** For `COc1ccc(C[C@H]2COC(=O)[C@@H]2Cc2cccc(Br)c2)cc1OC`, which TGI is on record?
**A.** > 100 µM

**Q.** How did the TGI turn out when `CSc1ccsc1-c1sc(-c2cc(SC)c(-c3sc(-c4cc(SC)c(-c5sccc5SC)s4)cc3SC)s2)cc1SC` was run?
**A.** 29.1 µM

**Q.** With `COc1cccc(C2c3cc4c(cc3OC(C)(N3CCCC3)C2C)OCO4)c1` (configuration not stated) as the compound, how does the TGI read?
**A.** > 100 µM

**Q.** For `CCSC1=N/C(=C\c2ccc(N(C)C)cc2)C(Cl)=N1`, which TGI is on record?
**A.** > 100 µM

**Q.** For `COC1(OC)CCCc2c1no[n+]2[O-]`, which TGI is on record?
**A.** > 100 µM

**Q.** With `CC1=C(/C=C/C(C)=C/C=C/C(C)=C/C(=O)OC2CC(n3cc(F)c(=O)[nH]c3=O)OC2CO)C(C)(C)CCC1` (configuration not stated) as the compound, how does the TGI read?
**A.** 16.7 µM

**Q.** How did the TGI turn out when `CC(C)C(C/C=C1\CC(CO)(COC(=O)C(C)(C)C)OC1=O)C(C)C` (configuration not stated) was run?
**A.** 14.7 µM

**Q.** How did the TGI turn out when `O=C1C=C(NCCOCCO)C(=O)c2c(O)ccc(O)c21` was run?
**A.** > 100 µM

**Q.** With `CC(C)[Si]1(C(C)C)OCC2OC3(CO)C(Oc4nc(=O)ccn43)C2O[Si](C(C)C)(C(C)C)O1` (configuration not stated) as the compound, how does the TGI read?
**A.** 28.9 µM

Test system: SF-268 CNS
Assay: NCI tumour cell line growth inhibition, 48 h

**Q.** `Cn1c2c(c3ccccc31)CCN1C(=O)CN(C(=O)C3CCCCC3)CC21` (configuration not stated) was tested. Which TGI did it give?
**A.** > 100 µM

**Q.** With `CCOC(=O)c1nc2cc(F)c(N3CCOCC3)cc2[nH]c1=O` as the compound, how does the TGI read?
**A.** > 100 µM

**Q.** For `CCCC(=O)N1CCN(c2ccc3c(c2)OC(C)O3)CC1` (configuration not stated), which TGI is on record?
**A.** > 100 µM

**Q.** `COC(=O)C1=C(O)c2ccc(Cl)cc2S(=O)(=O)N1C` was tested. Which TGI did it give?
**A.** > 100 µM

**Q.** For `C=C(Nc1nc2ccc(C)cc2s1)C(=O)C(CC)C(=O)C(CC)CC1C(=O)NC(=O)NC1=O` (configuration not stated), which TGI is on record?
**A.** > 100 µM

**Q.** With `CCOC(=O)[C@H](C)OC(=O)[C@@](C)(NC(=O)c1ccccc1C(=O)OC)[C@@H]1NC=C(C(=O)OC)CS1` as the compound, how does the TGI read?
**A.** > 100 µM

**Q.** For `Cn1c2ccccc2c(=O)c2cccc(C(=O)NC(CS)C(=O)O)c21` (configuration not stated), which TGI is on record?
**A.** > 100 µM

**Q.** How did the TGI turn out when `COc1ccc(N=NC(=O)NC(CC(C)C)C(=O)NC(C)C(=O)O)cc1` (configuration not stated) was run?
**A.** > 100 µM

**Q.** How did the TGI turn out when `CC(=O)OCC1OC(n2c(C)cc(C)c(C#N)c2=S)C(OC(C)=O)C(OC(C)=O)C1OC(C)=O` (configuration not stated) was run?
**A.** > 100 µM

**Q.** `COC(=O)NC(C(F)(F)F)(C(F)(F)F)P1(=O)OCCCO1` was tested. Which TGI did it give?
**A.** 73.8 µM

**Q.** For `COC(=O)c1nsc(OC)c1Cl`, which TGI is on record?
**A.** > 100 µM

**Q.** How did the TGI turn out when `Cc1c2cccc-2c(OCCO)cc2c3ccccc3n(C)c12` was run?
**A.** 25.6 µM

**Q.** How did the TGI turn out when `c1ccc2c(c1)SCCC2NC1=NCCO1` (configuration not stated) was run?
**A.** > 100 µM

**Q.** For `C=CCN(C(=O)CNC(=O)C(F)(F)F)c1cc(OCc2ccccc2)c2c(c1)c(C)cn2S(=O)(=O)c1ccccc1`, which TGI is on record?
**A.** > 100 µM

**Q.** How did the TGI turn out when `COC1=C(Br)[C@H](O)[C@@]2(C=C1Br)CC(C(=O)NCCCOc1c(Br)cc(C(O)CNC(C)=O)cc1Br)=NO2` (some centres not stated) was run?
**A.** > 10 µM

**Q.** With `COc1ccc(C[C@H]2COC(=O)[C@@H]2Cc2cccc(Br)c2)cc1OC` as the compound, how does the TGI read?
**A.** > 100 µM

**Q.** For `CSc1ccsc1-c1sc(-c2cc(SC)c(-c3sc(-c4cc(SC)c(-c5sccc5SC)s4)cc3SC)s2)cc1SC`, which TGI is on record?
**A.** > 100 µM

**Q.** With `COc1cccc(C2c3cc4c(cc3OC(C)(N3CCCC3)C2C)OCO4)c1` (configuration not stated) as the compound, how does the TGI read?
**A.** > 100 µM

**Q.** `CCSC1=N/C(=C\c2ccc(N(C)C)cc2)C(Cl)=N1` was tested. Which TGI did it give?
**A.** > 100 µM

**Q.** How did the TGI turn out when `COC1(OC)CCCc2c1no[n+]2[O-]` was run?
**A.** > 100 µM

**Q.** How did the TGI turn out when `CC1=C(/C=C/C(C)=C/C=C/C(C)=C/C(=O)OC2CC(n3cc(F)c(=O)[nH]c3=O)OC2CO)C(C)(C)CCC1` (configuration not stated) was run?
**A.** 19.5 µM

**Q.** `CC(C)C(C/C=C1\CC(CO)(COC(=O)C(C)(C)C)OC1=O)C(C)C` (configuration not stated) was tested. Which TGI did it give?
**A.** 27.7 µM

**Q.** With `O=C1C=C(NCCOCCO)C(=O)c2c(O)ccc(O)c21` as the compound, how does the TGI read?
**A.** > 100 µM

**Q.** With `CC(C)[Si]1(C(C)C)OCC2OC3(CO)C(Oc4nc(=O)ccn43)C2O[Si](C(C)C)(C(C)C)O1` (configuration not stated) as the compound, how does the TGI read?
**A.** 35.6 µM

Test system: RPMI-8226 leukemia
Assay: NCI tumour cell line growth inhibition, 48 h

**Q.** Which TGI does the source give for `Cn1c2c(c3ccccc31)CCN1C(=O)CN(C(=O)C3CCCCC3)CC21` (configuration not stated) here?
**A.** > 100 µM

**Q.** With `CCOC(=O)c1nc2cc(F)c(N3CCOCC3)cc2[nH]c1=O` as the compound, how does the TGI read?
**A.** > 100 µM

**Q.** `COC(=O)C1=C(O)c2ccc(Cl)cc2S(=O)(=O)N1C` was tested. Which TGI did it give?
**A.** > 100 µM

**Q.** Which TGI does the source give for `CCOC(=O)[C@H](C)OC(=O)[C@@](C)(NC(=O)c1ccccc1C(=O)OC)[C@@H]1NC=C(C(=O)OC)CS1` here?
**A.** > 100 µM

**Q.** With `Cn1c2ccccc2c(=O)c2cccc(C(=O)NC(CS)C(=O)O)c21` (configuration not stated) as the compound, how does the TGI read?
**A.** > 100 µM

**Q.** For `COc1ccc(N=NC(=O)NC(CC(C)C)C(=O)NC(C)C(=O)O)cc1` (configuration not stated), which TGI is on record?
**A.** > 100 µM

**Q.** With `CC(=O)OCC1OC(n2c(C)cc(C)c(C#N)c2=S)C(OC(C)=O)C(OC(C)=O)C1OC(C)=O` (configuration not stated) as the compound, how does the TGI read?
**A.** > 100 µM

**Q.** `COC(=O)NC(C(F)(F)F)(C(F)(F)F)P1(=O)OCCCO1` was tested. Which TGI did it give?
**A.** 48.5 µM

**Q.** For `CCOC(=O)NNC(=O)NCCCCNC(=O)NNC(=O)OCC`, which TGI is on record?
**A.** > 100 µM

**Q.** For `COC(=O)c1nsc(OC)c1Cl`, which TGI is on record?
**A.** > 100 µM

**Q.** Which TGI does the source give for `c1ccc2c(c1)SCCC2NC1=NCCO1` (configuration not stated) here?
**A.** > 100 µM

**Q.** With `C=CCN(C(=O)CNC(=O)C(F)(F)F)c1cc(OCc2ccccc2)c2c(c1)c(C)cn2S(=O)(=O)c1ccccc1` as the compound, how does the TGI read?
**A.** > 100 µM

**Q.** With `COC1=C(Br)[C@H](O)[C@@]2(C=C1Br)CC(C(=O)NCCCOc1c(Br)cc(C(O)CNC(C)=O)cc1Br)=NO2` (some centres not stated) as the compound, how does the TGI read?
**A.** > 10 µM

**Q.** How did the TGI turn out when `COc1ccc(C[C@H]2COC(=O)[C@@H]2Cc2cccc(Br)c2)cc1OC` was run?
**A.** 56.1 µM

**Q.** How did the TGI turn out when `CSc1ccsc1-c1sc(-c2cc(SC)c(-c3sc(-c4cc(SC)c(-c5sccc5SC)s4)cc3SC)s2)cc1SC` was run?
**A.** > 100 µM

**Q.** With `CCSC1=N/C(=C\c2ccc(N(C)C)cc2)C(Cl)=N1` as the compound, how does the TGI read?
**A.** > 100 µM

**Q.** For `COC1(OC)CCCc2c1no[n+]2[O-]`, which TGI is on record?
**A.** > 100 µM

**Q.** For `CC1=C(/C=C/C(C)=C/C=C/C(C)=C/C(=O)OC2CC(n3cc(F)c(=O)[nH]c3=O)OC2CO)C(C)(C)CCC1` (configuration not stated), which TGI is on record?
**A.** 15.8 µM

**Q.** How did the TGI turn out when `O=C1C=C(NCCOCCO)C(=O)c2c(O)ccc(O)c21` was run?
**A.** 78 µM

**Q.** `CC(C)[Si]1(C(C)C)OCC2OC3(CO)C(Oc4nc(=O)ccn43)C2O[Si](C(C)C)(C(C)C)O1` (configuration not stated) was tested. Which TGI did it give?
**A.** 23.9 µM
